This passage reports IC50 results from PMC9744210, “Discovery of the SHP2 allosteric inhibitor 2-((3R,4R)-4-amino-3-methyl-2-oxa-8-azaspiro[4.5]decan-8-yl)-5-(2,3-dichlorophenyl)-3-methylpyrrolo[2,1-f][1,2,4] triazin-4(3H)-one” (Journal of Enzyme Inhibition and Medicinal Chemistry, 2022).

This assay concerns the target T1, SHP2 (Homo sapiens, UniProt Q06124).
T1 construct: 6xHis (N, cleaved yes); TEV cleavage site (N, cleaved yes); made in house; host or cells: E. coli BL21 (DE3)
T1 sequence (Q06124 1-525): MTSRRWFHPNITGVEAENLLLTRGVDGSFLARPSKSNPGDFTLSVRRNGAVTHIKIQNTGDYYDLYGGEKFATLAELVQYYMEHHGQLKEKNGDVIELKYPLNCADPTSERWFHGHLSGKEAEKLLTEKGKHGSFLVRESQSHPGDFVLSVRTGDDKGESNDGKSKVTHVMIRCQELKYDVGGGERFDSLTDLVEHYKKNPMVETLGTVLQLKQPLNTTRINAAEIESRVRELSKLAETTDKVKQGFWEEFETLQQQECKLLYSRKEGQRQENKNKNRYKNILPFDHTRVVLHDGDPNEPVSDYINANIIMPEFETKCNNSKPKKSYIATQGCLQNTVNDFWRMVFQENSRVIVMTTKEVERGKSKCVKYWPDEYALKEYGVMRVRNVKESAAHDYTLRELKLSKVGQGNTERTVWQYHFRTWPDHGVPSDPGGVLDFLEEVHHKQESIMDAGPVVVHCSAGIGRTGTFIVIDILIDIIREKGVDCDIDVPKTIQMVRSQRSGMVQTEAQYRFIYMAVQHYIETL
The assay can be described thus: SHP2 phosphatase activity inhibition, DiFMUP prompt fluorescence assay. Format: biochemical. As to conditions: 0.5 nM SHP2 activated with 0.125 µM bis-tyrosyl-phosphorylated peptide; substrate DiFMUP 200 μM; room temperature; read-out: Inhibitory activity IC50. The protocol: The measurement of the catalytic activity of SHP2 is using the surrogate substrate 6,8-difluoro-4-methylumbelliferyl phosphate (DiFMUP) in a prompt fluorescence assay format.[14]^,[22]^,[23] In special, the phosphatase reaction was performed at room temperature in a 384-well black plate (Corning) with a total volume of 20 μL. The assay buffer contained 60 mM HEPES, pH7.2, 75 mM NaCl, 75 mM KCl, 1 mM EDTA, 5 mM DTT, and 0.05% Triton X-100.
After 60 min incubation at room temperature, the surrogate substrate DiFMUP (Thermo, Cat: D6567, 200 μM) was added to the catalytic reaction. After 30 min incubation at room temperature, the fluorescence signal was measured at the excitation and emission wavelengths of 340 nm and 450 nm respectively with a plate reader (Tecan Spark). The curves of the inhibitor dose–response were analysed using normalised IC50 regression curve fitting with control-based normalisation.
With `C[C@H]1OCC2(CCN(c3nn4cnc(-c5cccc(Cl)c5Cl)c4c(=O)n3C)CC2)[C@H]1N` [PB17-021-01], the half-inhibitory concentration (IC50) (usually the concentration at which inhibition is half-maximal) was 104 nM.

As for `C[C@H]1OCC2(CCN(c3nn4ccc(-c5cccc(Cl)c5Cl)c4c(=O)n3C)CC2)[C@H]1N` [PB17-026-01, 2-((3R,4R)-4-amino-3-methyl-2-oxa-8-azaspiro[4.5]decan-8-yl)-5–(2,3-dichlorophenyl)-3-methylpyrrolo[2,1-f][1,2,4]triazin-4(3H)-one], the concentration for half-maximal inhibition (IC50) stood at 38.9 nM.

Regarding `C[C@H]1OCC2(CCN(c3nn4ccc(-c5ccncc5)c4c(=O)n3C)CC2)[C@H]1N` [PB17-035-01], the half-inhibitory concentration (IC50) came out at 168 nM.

With `Cn1c(N2CCC(C)(CN)CC2)nn2ccc(-c3cccc(Cl)c3Cl)c2c1=O` [PB17-036-01], the IC50 is 645 nM.
